Source: patent US9185889B2, “CD4 T-cells and CD8zeta cells involved in mammalian host response to epithelial cell infections and uses thereof” (Indiana University Research and Technology Corporation, priority 2010, dated 2015)

Assays:
C. muridarum = assay: Control of C. muridarum replication in C57epi.1 epithelial cells (IFU titered on McCoy monolayers); format: cell-based, Chlamydia muridarum
Protocol: To test whether the CD4 clones could control the Chlamydia replication in vitro, C57epi.1 monolayers in 48 well plates were untreated, or treated with IFN-γ (10 ηg/ml) for 14 h prior to infection or at the time of infection with 3 IFU of C. muridarum per cell. After addition of C. muridarum the plates were spun at 1200 rpm (300 g) for 30 minutes. Four hours after infection the inoculum was removed CD4 T cell clones were added in T cell media. 36 h post-infection, wells were scraped, harvested, and stored at −80° C. until C. muridarum titers determined on McCoy monolayers as previously described (Johnson, R. M., 2004). Recombinant murine IFN-γ at all concentrations tested (up to 1000 ρg/ml) had no effect on C. muridarum titrations done on the McCoy monolayers; maximum IFN-γ carryover in dilutions used for quantifying C. muridarum was <50 ρg/ml.
The panel of CD4 T cell clones was tested to determine the ability of specific clones to control C. muridarum replication in C57epi.1 epithelial cells (FIG. 2). Monolayers of C57epi.1 cells in 48 well plates (˜200,000 epithelial cells per well) were untreated or treated with IFN-γ, either 14 h prior to infection or at the time of infection, then infected with C. muridarum. Four hours post-infection the inoculating media was removed and replaced with T cell media containing CD4 T cell clones; 150, 000 T cells were added per well for an effector-to-target ratio of ˜0.75:1. 32 h later the wells were harvested with additional SPG buffer and recovered C. muridarum titered on McCoy monolayers to score replication. […] IFUs recovered from experimental wells were compared with identically treated (untreated or IFN-γ treated) parallel control wells (no T cells) to calculate % control replication. This normalization controls for the difference in C. muridarum replication in the untreated vs. IFN-γ treated C57epi.1 cells.
Referring now to FIG. 12A, the modest inhibitory effect of IFN-γ was reversed by blocking NO production with either MLA or NIL. […] According to FIG. 12B, C57.1epi cells were untreated (hatched bar) or pretreated with IFN-γ (10 ηg/ml×14 hours) in absence (black bar) or presence of MLA (gray bar) or NIL (light gray bar), and then infected with C. muridarum (3 IFU/cell). Wells were harvested at 36 hours postinfection and C. muridarum (IFU) quantified on McCoy monolayers. Comparisons were made to the infected (hatched bar).
Referring now to FIG. 19B, C. muridarum replication in epithelial cells, by an iNOS-independent mechanism, is controlled by IFN-γ-independent CD4 T cell clones. […] Wells were harvested 36 hours post infection and C. muridarum quantified on McCoy monolayers. […]

iNOS = biological target: T1, iNOS (Mus musculus, UniProt P29477); assay: NO production measured as nitrite by infected C57epi.1 epithelial cells with iNOS inhibitors; format: cell-based, murine
T1 construct: C57epi.1 is a cloned oviduct epithelial cell line derived from a C57BL/6 mouse; endogenous in cells; host or cells: C57epi.1 mouse (C57BL/6) oviduct epithelial cell line, IFN-gamma pretreated and infected with C. muridarum, with or without mouse CD4 T cell clones
Protocol: Referring now to FIG. 19A, C57 epi.1 epithelial cells, untreated (hatched bars) or pretreated with IFN-γ (10 ηg/ml×14 hours) in the absence (black bars) or presence of iNOS inhibitors MLA (gray bars) or NIL (light gray bars),—were infected with C. muridarum (3 IFU/cell). Four hours later, the inocula were removed and monolayers cocilted with and with CD4 T-cell clones uvmo-1, -2, and -3 for an additional 32 hours. Supernatants were collected at 36 hour post infection, 32 hour post T cell coculture, and analyzed for NO production measured as nitrite. […] Also, MLA and NIL were effective inhibitors of NO production, as MLA blocked>90% of IFN-γ-induced NO; NIL blocked ˜60%.
Still referring to FIG. 19A, the iNOS inhibitor MLA blocks infected epithelial nitrite production to the background level of 2 uM even in the presence of exogenous interferon gamma and CD4 T cell clones uvmo-1,-2,-3. Inhibition of iNOS activity induced by interferon gamma, and interferon gamma plus CD4 T cell clones uvmo-1,-2,-3, in infected C57epi.1 murine epithelial cells using the iNOS inhibitors N^G-Monomethyl-L-arginine (MLA) and L-N^6-(1-Iminoethyl)lysine (NIL). iNOS activity was measured as nitrite in 24 h culture supernatants. […] 24 h supernatants from uninfected C57epi.1 murine epithelial cells have nitrite levels>0<1.5 uM.

Row | Compound | effect on the modest inhibitory effect of IFN-γ on C. muridarum replication (C. muridarum; C57epi.1 pretreated with IFN-γ, no T cells) | block of IFN-γ-induced NO (iNOS; infected C57epi.1 cells, nitrite in supernatants) [%] | C. muridarum replication in control wells (no T cells) (C. muridarum; C57epi.1 pretreated with IFN-γ 14 h prior to infection, pooled means from two experiments) | C. muridarum replication in control wells (no T cells) (C. muridarum; IFN-γ added at the time of infection) | effect on C. muridarum titrations done on McCoy monolayers (C. muridarum; all concentrations tested (up to 1000 ρg/ml)) | induction of NO production in C57epi.1 epithelial cells (iNOS; IFN-γ 10 ηg/ml × 14 hours, infected, p<0.0001)
1 | CC(=N)NCCCC[C@H](N)C(=O)O.Cl [NIL, L-N^6-(1-iminoethyl)lysine hydrocholoride] | reversed | ~60 |  |  |  | 
2 | IFN-γ: Recombinant murine IFN-γ (R&D Systems) |  |  | 4±2×10^6 IFU/well | 5±1×10^6 IFU/well | no effect | roughly 6 fold
